The record followed here is paper PMC4505723 (Journal of the American Chemical Society, 2015).

This experiment has as its system L. lactis HP cells. Kind of experiment: liquid media growth assays with L. lactis HP cells. Type of experiment: cell-based. The following applies: liquid media growth assay (Figure S4).

As usually defined, the IC50 is the concentration that gives 50% inhibition. A low value points to greater potency in that assay. nukacin ISK-1 registered an IC50 of 400 ± 80 nM.
With lacticin 481 [wt lacticin 481] the figure was 100 ± 25 nM.
